Reference: patent US20040019082A1, “Reversible infertility in male mice following oral administration of alkylated imino sugars: a non-hormonal approach to male contraception” (United Therapeutics Corporation, priority 2002, published 2004)
Read-outs that look alike come from different tables or passages of the source.

Tests used:
[1] = tested on: testosterone, luteinising and follicle-stimulating hormones; assay: Endocrinological assays; format: in vivo, mouse
Method: Endocrinological assays—Following termination of mice by asphyxiation in CO2 and cervical dislocation, blood was obtained via cardiac puncture, which was allowed to clot at room temperature (RT). Serum was obtained by centrifugation, and stored at −80° C. until use. Testosterone, luteinising and follicle-stimulating hormones were measured by methods well-known in the art (Huhtaniemi, I., Nikula, H. & Rannikko, S. (1985) J Clin Endocrinol Metab 61, 698-704; Haavisto, A. M., Pettersson, K., Bergendahl, M., Perheentupa, A., Roser, J. F. & Huhtaniemi, I. (1993) Endocrinology 132, 1687-91; van Casteren, J. I., Schoonen, W. G. & Kloosterboer, H. J. (2000) Biol Reprod 62, 886-94.)

epididymal spermatozoa [2] = assay: Electron microscopy of epididymal spermatozoa; format: in vivo, mouse
Method: For scanning electron microscopy, dried smears of murine spermatozoa were prepared as described above. Cells were fixed for 20 min in 4% paraformaldehyde in PBS, transferred to 70, 80 and 95% ethanol, critical-point dried in a Polaron CPD7501 instrument, gold-coated using a Nanotech Semprep2, and examined in a Hitachi S800 FEG-SEM at 3 kV. For transmission electronmicroscopy epididymal spermatozoa were collected in 1 mg/ml cold water soluble polyvinylalcohol in PBS, and spun for 10 min. at 600×g. Pelleted cells were fixed overnight at 4° C. with 1% glutaraldehyde, 0.2% picric acid in 0.2 M cacodylic acid pH 7.4, washed once in 0.1 M cacodylic acid pH 7.4, and stored in 70% ethanol. Cells were postfixed with 2% osmium letroxide, embedded in araldite, sectioned at 70 nm, stained with uranyl acetate/lead citrate, and examined with a JEOL JEM-100CX microscope at 80 kV.

epididymal spermatozoa [3] = assay: Computer-assisted sperm motility analysis; format: in vivo, mouse; conditions: mean ± SD, n ≧ 3
Method: Motility analysis. Mice were terminated by asphyxiation in CO2 and cervical dislocation, and caudae epididymides were removed with vasa deferentia. Spermatozoa were collected in pre-warmed M2 medium (Sigma) by stripping the vasa deferentia and by applying mild pressure to the caudae epididymides; the cells were incubated at 37° C. for 1 hour, and videographed using a Leica DM IRB microscope fitted with a JVC TK-1281 camera. Computer-assisted sperm motility analysis was performed using a Hobson Sperm Tracker (Hobson Vision Ltd., UK) at 50 frames per second. Motility parameters of each sperm sample were measured in triplicate, collecting data from 200 sperm tracks per determination.

seminiferous tubules = assay: Testis histology; format: in vivo, mouse; conditions: 50 mg/kg/day (FIG. 4B)
Excerpt: Histology and Scanning electronmicroscopy—Testes were obtained from mice perfused with 4% paraformaldehyde, 1% gluteraldehyde, kept in the fixative for two days, and transferred to 70% ethanol. Tissues were post-fixed with 2% osmium tetroxide, embedded in araldite, sectioned at 1 μm, and stained with Toluidine Blue. Sections were examined with a Zeiss Axioskop II, and images were acquired with an Axiocam camera, operated by Axiovision 3.0 software.

male C57BL/6 mice = assay: Mating assay, fertility of male mice; format: in vivo, mouse
Excerpt: Treatment of mice—Male C57BL/6 mice were housed under standard non-sterile conditions. The mice were provided with water ad lib. and prior to drug administration were fed a diet of pelleted mouse chow (expanded Rat and Mouse Chow 3, SDS Ltd.) To administer the compounds of the present invention, the mice were fed a diet of powdered mouse chow (expanded Rat and Mouse Chow 1, ground, SDS Ltd.) containing either NB-DNJ, NB-DGJ, NN-6-MeDGJ, or DNJ. The diet and compound (both as dry solids) were mixed thoroughly, stored at room temperature, and used within 7 days of mixing.
Mating assays—To assess the fertility of male mice that were fed on a diet containing an iminosugar, a mating assay was used: typically six week old male C57BL/6 mice in groups of three were administered diet containing compound for five weeks (unless otherwise specified), after which each of them was caged with four untreated female C57BL/6 mice, and provided with standard pelleted chow. Females were at least 11 weeks old, and age-matched in each experiment. The male was removed from the females after 7 or 9 days, depending on the experiment; the females were monitored for vaginal mucous plugs, pregnancies, and, if any, litter sizes. To study any effect on female fertility six-week-old female C57BL/6 mice were treated with NB-DNJ for five weeks, after which each of them was caged with a non-treated age-matched male for four days.

epididymal sperm = assay: Epididymal sperm count; format: in vivo, mouse; conditions: at loss of fertility caused by the drug
[4] = tested on: ganglioside GM1 on the surface of mouse splenocytes; conditions: cited from earlier work
[5] = humans; cited from earlier work
[6] = tested on: female mice of strain 129; assay: Fertility of treated female mice of strain 129; format: in vivo, mouse; conditions: 2400 mg/kg day for 12 weeks, 15 week-old females, caged with untreated males
Method: NB-DNJ was administered at 2400 mg/kg day for 12 weeks to 15 week-old female mice of strain 129. After this, the drug was withdrawn and the females were caged with untreated males of strain 129. […] The mice in this experiment were heterozygous for a disruption in the gene encoding ceramide galactosyltransferase. These mice are phenotypically indistinguishable from wild-type 129 mice and reproduce normally (Coetzee et al., (1996), Cell, 86:209-219).

[7] = 5 mg/kg per day, five weeks in diet
[8] = 2400 mg/kg per day, taken off the drug after five weeks of treatment

SMILES: CCCCN1C[C@H](O)[C@@H](O)[C@H](O)[C@H]1CO [NB-DNJ, N-butyldeoxynojirimycin]
- serum testosterone, FSH, LH and testicular testosterone ([1]; 2400 mg/kg/day, p<0.001): significant reduction
- serum testosterone, FSH, LH and testicular testosterone ([1]; 15, 150 or 1200 mg/kg/day): did not change
- tails and mitochondria of epididymal spermatozoa (epididymal spermatozoa [2]; 1,200 mg/kg/day (FIG. 5)): induced a number of abnormalities
- acrosomal elements covering the nuclei, ultrastructural level (epididymal spermatozoa [2]; 1,200 mg/kg/day (FIGS. 5D-5F)): no typical acrosomal elements were seen
- % motile (epididymal spermatozoa [3]; NB-DNJ 15 mg/kg/day): 26 ± 16%
- VCL, curvilinear velocity (epididymal spermatozoa [3]; NB-DNJ 15 mg/kg/day): 74 ± 31 μm/sec
- VSL, straight line velocity (epididymal spermatozoa [3]; NB-DNJ 15 mg/kg/day): 27 ± 9 μm/sec
- % motile (epididymal spermatozoa [3]; NB-DNJ 150 mg/kg/day): 15 ± 6%
- VCL, curvilinear velocity (epididymal spermatozoa [3]; NB-DNJ 150 mg/kg/day): 89 ± 31 μm/sec
- VSL, straight line velocity (epididymal spermatozoa [3]; NB-DNJ 150 mg/kg/day): 27 ± 8 μm/sec
- % motile (epididymal spermatozoa [3]; NB-DNJ 1200 mg/kg/day): 17 ± 7%
- VCL, curvilinear velocity (epididymal spermatozoa [3]; NB-DNJ 1200 mg/kg/day): 49 ± 17 μm/sec
- VSL, straight line velocity (epididymal spermatozoa [3]; NB-DNJ 1200 mg/kg/day): 18 ± 9 μm/sec
- % motile (epididymal spermatozoa [3]; NB-DNJ 2400 mg/kg/day): 9 ± 2%
- VCL, curvilinear velocity (epididymal spermatozoa [3]; NB-DNJ 2400 mg/kg/day): 28 ± 21 μm/sec
- VSL, straight line velocity (epididymal spermatozoa [3]; NB-DNJ 2400 mg/kg/day): 9 ± 5 μm/sec
- morphology of nuclei of mature spermatids (seminiferous tubules): aberrant, heterogeneous morphology
- vacuolization in seminiferous tubules versus controls (seminiferous tubules): more extensive vacuolization
- fertility (male C57BL/6 mice; 1 mg/kg per day, five weeks in diet): did not affect
- fertility (pregnancies per male) (male C57BL/6 mice; [7]): reduced their fertility
- litter size (male C57BL/6 mice; [7]): reduced
- fertility (male C57BL/6 mice; 15 mg/kg per day, five weeks in diet): completely infertile
- fertility, capacity to sire normal-sized litters (male C57BL/6 mice; 2400 mg/kg per day oral, one or two weeks of treatment, six-week old males): this capacity was maintained
- infertility, length of treatment needed (male C57BL/6 mice; 2400 mg/kg per day oral, weekly increments): infertile after at least three weeks
- litter size after withdrawal (male C57BL/6 mice; [8]): normal-sized litters
- regain of fertility after withdrawal (male C57BL/6 mice; [8]): regained fertility in the fourth week
- fertility (male C57BL/6 mice; 13 week old males, 2400 mg/kg per day for five weeks): complete sterility
- frequency of post-coital vaginal mucous plugs (mating behavior) (male C57BL/6 mice; NB-DNJ dose range, five weeks in diet): not affected
- dose required for induced infertility (male C57BL/6 mice; oral, male mice): at least 15 mg/kg/day
- epididymal sperm count (epididymal sperm): not associated with a reduction
- reduction of ganglioside GM1 levels ([4]; 600 mg/kg per day): 10%
- reduction of ganglioside GM1 levels ([4]; 2400 mg/kg per day): 70%
- tolerability [5]: well tolerated
- average litter size [6]: 6 pups
- pregnancy after drug withdrawal [6]: All females quickly became pregnant
